Source: US7250511B2, “Process for the preparation of cyclopenta[g]quinazoline derivatives” (BTG International Limited, priority 2001, dated 2007)

Row | SMILES | melting point
1 | C#CCN(c1ccc(C(=O)N[C@@H](CCC(=O)N[C@H](CCC(=O)O)C(=O)O)C(=O)O)c(F)c1)C1CCc2cc3nc(C)[nH]c(=O)c3cc21 (mixture of isomers) [Example 4, N-{N-{4[N-((6RS)-2-methyl-4-oxo-3,4,7,8-tetra-hydro-6H-cyclopental[g]quinazolin-6-yl)-N-(prop2-ynyl)amino]-2-fluoro-benzoyl}-L-γ-glutamyl}-D-glutamic acid] | 175 °C (dec.)
2 | C#CCN(c1ccc(C(=O)O)cc1)C1CCc2cc3nc(C)[nH]c(=O)c3cc21 (racemic) [Example 1, 4{N-[(6RS)-2-Methyl-4-oxo-3,4,7,8-tetrahydro-6H-cyclopenta[g]quinazolin-6-yl]-N-(prop-2-ynyl)amino}benzoic acid] | 305 to 307 °C
3 | C#CCN(c1ccc(C(=O)N[C@@H](CCC(=O)N(C)[C@@H](CCC(=O)O)C(=O)O)C(=O)O)cc1)C1CCc2cc3nc(CO)[nH]c(=O)c3cc21 (mixture of isomers) [Example 5, N-{N-{4-[N-((6RS)-2-hydroxymethyl-4-oxo-3,4,7,8-tetrahydro-6H-cyclopenta[g]quinazolin-6yl)-N-(prop-2-ynyl)amino]-benzoyl}-L-γ-glutamyl}-N-methyl-L-glutamic acid] | > 165 °C (dec.)
4 | C#CCN(c1ccc(C(=O)N[C@@H](CCC(=O)N[C@H](CCC(=O)O)C(=O)O)C(=O)O)cc1)C1CCc2cc3nc(COC)[nH]c(=O)c3cc21 (mixture of isomers) [Example 2, N-{N-{4-[N-((6RS)-2-Methoxymethyl4oxo-3,4,7,8-tetrahydro-6H-cyclopent[g]quinazolin-6-yl)-N-(prop-2-ynyl)amino]-benzoyl}-L-γ-glutamyl}-D-glutamic acid] | 150 to 155 °C
